The results in this text go back to ChEMBL document CHEMBL1154020, “Tricyclic indole and dihydroindole derivatives as new inhibitors of soluble guanylate cyclase” (Bioorg Med Chem Lett, 2009).

The source made the active and inactive calls. No cut-off for these calls is given here.

The species entered for assay [1] is Rattus norvegicus. Kind of assay: Inhibition of soluble guanylate cyclase in rat aortic smooth muscle cells assessed as decrease in SNP-induced cGMP production at 100 uM pretreated 30 min before SNP challenge by enzyme immunoassay.
For assay [2], the species on record is Rattus norvegicus. The assay can be described thus: Inhibition of soluble guanylate cyclase in rat aortic smooth muscle cells assessed as decrease in SNP-induced cGMP production at 1 uM pretreated 30 min before SNP challenge by enzyme immunoassay.
Assay [3] is filed under the species Rattus norvegicus. The assay can be described thus: Inhibition of soluble guanylate cyclase in rat aortic smooth muscle cells assessed as decrease in cGMP production at 100 uM after 30 mins by enzyme immunoassay.
The species entered for assay [4] is Rattus norvegicus. Kind of assay: Inhibition of particulate guanylate cyclase in rat aortic smooth muscle cells assessed as decrease in ANF-induced cGMP production at 100 uM pretreated 30 min before ANF challenge by enzyme immunoassay.
The species entered for assay [5] is Rattus norvegicus. Kind of assay: Inhibition of soluble guanylate cyclase in rat aortic smooth muscle cells assessed as decrease in SNP-induced cGMP production pretreated 30 min before SNP challenge by enzyme immunoassay.

`CCOCn1ccc2c1CCc1cnoc1-2`: the result in the assay filed under Rattus norvegicus [1] was Active. Also, the result in the assay filed under Rattus norvegicus [2] was inactive.
Regarding `CCOCn1ccc2c3oncc3ccc21`, the result in the assay filed under Rattus norvegicus [3] and in the assay listed under Rattus norvegicus [4] was inactive. In addition, in the assay listed under Rattus norvegicus [5], the Activity entry was “Dose-dependent effect”.
Regarding `CCOCn1ccc2c1CCc1cnn(C)c1-2`, the outcome in the assay listed under Rattus norvegicus [1] and in the assay filed under Rattus norvegicus [2] was Active.
Turning to `CCOCn1ccc2c1CCc1cnn(-c3ccccc3)c1-2`, the result in the assay listed under Rattus norvegicus [1] was Active.
